The values that follow come from US8653099B2, “Cold menthol receptor antagonists” (Janssen Pharmaceutica, priority 2008, dated 2014).

This test addresses T1, canine TRPM8 (Canis lupus familiaris, UniProt Q1A7N1).
T1 construct: expressed in transfected cells
Put plainly: In vitro canine TRPM8 functional assay (icilin-induced Ca2+ fluorescence, FLIPR/FDSS). The test is classed as cell-based. Conditions: for inhibition at 0.5 µM: HEK293, 0.5 μM compound; for IC50: HEK293 cells stably expressing canine TRPM8, icilin at approx. 80% maximal response, eight-point dose-response; for inhibition at 0.2 µM: HEK293, 0.2 μM compound; for inhibition at 1 µM: HEK293, 1 μM compound. As for the experimental part: The functional activity of compounds of the formula (I) was determined by measuring changes in intracellular calcium concentration using a Ca^2+-sensitive fluorescent dye. The changes in fluorescent signal were monitored by a fluorescence plate reader, either a FLIPR™ (Molecular Devices) or FDSS (Hamamatsu).
HEK293 cells stably expressing canine TRPM8 were routinely grown as monolayers in Dulbecco's minimum essential medium supplemented with 10% FBS, 2 mM L-glutamine, 100 units/mL penicillin, 100 ug/mL streptomycin and 400 μg/mL G418. Cells were maintained in 5% CO2 at 37° C. At 24 hrs prior to assay, cells were seeded in black wall, clear-base poly-D-lysine coated 384-well plates (BD Biosciences, NJ, USA) at a density of 5,000 cells per well in culture medium and grown overnight in 5% CO2 at 37° C. On assay day, growth media was removed and cells were loaded with Calcium 3 Dye (Molecular Devices) for 35 min at 37° C., under 5% CO2 and then for 25 min at room temperature and atmosphere. Subsequently, cells were tested for agonist-induced increases in intracellular Ca^2+ levels using FLIPR™ or FDSS. Cells were challenged with compounds of the formula (I) (at varying concentrations) and intracellular Ca^2+ was measured for 5 min prior to the addition of icilin to all wells to achieve a final concentration that produces approximately an 80% maximal response.
Maximal fluorescence intensity (FI) achieved upon addition of icilin was exported from the FLIPR or FDSS software and further analyzed using GraphPad Prism 3.02 (Graph Pad Software Inc., CA, U.S.A.). Basal FI was subtracted prior to normalizing data to percent of maximal response. Curves were generated using the average of quadruplicate wells for each data point, were analyzed using nonlinear regression of either sigmoidal dose response or sigmoidal dose response (variable slope). Finally, the EC50 and IC50 values were calculated with the best-fit dose curve determined by GraphPad Prism.

Where [1] appears, read: HEK293 canine TRPM8, icilin challenge.

Values joined by “and” are separate entries in the source; they are usually repeats but may differ in a detail not shown here. Identical values can stand only once.

T1 sequence (Q1A7N1 1-1104): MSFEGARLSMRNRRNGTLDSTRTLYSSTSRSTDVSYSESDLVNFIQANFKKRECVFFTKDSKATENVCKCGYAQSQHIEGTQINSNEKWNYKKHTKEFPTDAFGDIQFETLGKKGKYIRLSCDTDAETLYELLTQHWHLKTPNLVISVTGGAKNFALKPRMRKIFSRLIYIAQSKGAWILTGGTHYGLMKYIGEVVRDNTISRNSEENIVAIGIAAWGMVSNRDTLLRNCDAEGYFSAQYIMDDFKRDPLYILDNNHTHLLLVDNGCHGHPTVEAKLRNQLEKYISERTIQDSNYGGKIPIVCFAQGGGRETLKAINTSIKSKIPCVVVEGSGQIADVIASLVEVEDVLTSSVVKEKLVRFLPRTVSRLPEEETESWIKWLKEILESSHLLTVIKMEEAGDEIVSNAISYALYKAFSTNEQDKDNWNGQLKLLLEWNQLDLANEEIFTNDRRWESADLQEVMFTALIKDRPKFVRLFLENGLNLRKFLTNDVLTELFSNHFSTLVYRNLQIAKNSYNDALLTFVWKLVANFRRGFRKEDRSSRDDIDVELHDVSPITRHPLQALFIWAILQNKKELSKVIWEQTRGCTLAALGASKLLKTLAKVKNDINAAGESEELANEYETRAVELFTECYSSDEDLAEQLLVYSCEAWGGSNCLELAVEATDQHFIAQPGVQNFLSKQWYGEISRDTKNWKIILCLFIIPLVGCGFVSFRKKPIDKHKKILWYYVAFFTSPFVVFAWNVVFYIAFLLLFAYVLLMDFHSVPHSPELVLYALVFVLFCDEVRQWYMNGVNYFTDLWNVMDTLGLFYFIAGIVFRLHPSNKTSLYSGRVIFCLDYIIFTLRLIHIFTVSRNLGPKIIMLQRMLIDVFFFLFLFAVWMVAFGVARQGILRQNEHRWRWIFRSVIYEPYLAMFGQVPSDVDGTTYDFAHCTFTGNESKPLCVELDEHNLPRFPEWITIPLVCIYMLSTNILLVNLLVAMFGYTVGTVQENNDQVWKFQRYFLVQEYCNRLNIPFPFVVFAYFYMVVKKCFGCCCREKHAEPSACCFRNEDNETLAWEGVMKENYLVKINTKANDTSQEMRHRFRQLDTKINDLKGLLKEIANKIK

As to `COc1ccccc1NC(C(=O)Nc1cccc2cnccc12)c1ccc(C(F)(F)F)cc1` (stereo not shown) [Cpd 21], the midpoint of inhibition, the IC50, lay at 287 nM. Further, under setting [1], the inhibition at 0.5 µM was 95.3%.
In turn, `O=C(Nc1cccc2cnccc12)C(Sc1ccccc1)c1ccc(C(F)(F)F)cc1` (stereo not shown) [Cpd 56, N-(Isoquinolin-5-yl)-2-(phenylthio)-2-(4-(trifluoromethyl)phenyl)acetamide] registered an IC50 of 130 nM.
For the compound `O=C(Nc1cccc2cnccc12)C(Nc1ccc(Cl)cc1)c1ccc(C(F)(F)F)cc1` (stereo not shown) [Cpd 13], the IC50 was found to be 489 nM. The inhibition at 0.5 µM under setting [1] came out at 86.9%.
As for `O=C(Nc1cccc2ncccc12)C(Nc1cccc(F)c1F)c1ccc(Cl)cc1` (stereo not shown) [Cpd 52], the IC50 was 219 nM. Moreover, the inhibition at 0.5 µM under setting [1] worked out at 80%.
The compound `O=C(Nc1cccc2cnccc12)C(Nc1ccc(F)cc1F)c1ccc(C(F)(F)F)cc1` (stereo not shown) [Cpd 50] displayed an IC50 of 115 nM. In addition, the inhibition at 0.5 µM under setting [1] amounted to 98%.
As for `O=C(Nc1cccc2cnccc12)C(Nc1ccccc1)c1ccc(C(F)(F)F)cc1` (single isomer, unassigned) [Cpd 30, N-Isoquinolin-5-yl-2-phenylamino-2-(4-trifluoromethyl-phenyl)-acetamide], the IC50 turned out to be 257 nM. In addition, under setting [1], the inhibition at 0.5 µM is 96%.
Consider `O=C(Nc1cccc2cn[nH]c12)C(Nc1ccccc1)c1ccc(C(F)(F)F)cc1` (stereo not shown) [Cpd 28], for which the IC50 is 161 nM. For the same compound, the inhibition at 0.5 µM under setting [1] is 98.3%.
Consider `O=C(Nc1cccc2[nH]ncc12)C(Nc1ccccc1)c1ccc(C(F)(F)F)cc1` (stereo not shown) [Cpd 27], for which the IC50 was 84.5 nM. Besides, the inhibition at 0.5 µM under setting [1] was determined as 101%.
Regarding `O=C(Nc1cccc2[nH]ccc12)C(Nc1ccccc1)c1ccc(Cl)cc1` (stereo not shown) [Cpd 38], inhibition was half-maximal at 181 nM (IC50). Further, the inhibition at 0.5 µM under setting [1] was found to be 84%.
In turn, `O=C(Nc1cccc2cnccc12)C(Nc1cccc(Cl)c1)c1ccc(C(F)(F)F)cc1` (stereo not shown) [Cpd 12] returned an IC50 of 261 nM. Moreover, the inhibition at 0.5 µM under setting [1] is 101%.
The like results for `O=C(Nc1cccc2cnccc12)C(Nc1ccccc1F)c1ccc(Br)cc1` (stereo not shown) [Cpd 41] were, in that order, 82 nM and 98%.
In turn, `O=C(Nc1cccc2cnccc12)C(Nc1ccccc1Cl)c1ccc(C(F)(F)F)cc1` (stereo not shown) [Cpd 11] yielded an IC50 of 89.1 nM. Moreover, the inhibition at 0.5 µM under setting [1] turned out to be 104%.
The like results for `O=C(Nc1cccc2cnccc12)C(Nc1ccccc1)c1ccc(Cl)cc1` (stereo not shown) [Cpd 39] were, in that order, 158 nM and 93%.
As to `O=C(Nc1cccc2ncccc12)C(Nc1cc(F)ccc1F)c1ccc(Cl)cc1` (stereo not shown) [Cpd 54], the midpoint of inhibition, the IC50, lay at 107 nM. Moreover, the inhibition at 0.2 µM under setting [1] is 77%.
For the compound `O=C(Nc1cccc2cnccc12)C(Nc1cccc(F)c1)c1ccc(C(F)(F)F)cc1` (stereo not shown) [Cpd 36], the IC50 was found to be 119 nM. The inhibition at 0.5 µM under setting [1] turned out to be 95%.
In the case of `CN(c1ccccc1)C(C(=O)Nc1cccc2cnccc12)c1ccc(C(C)(C)C)cc1` (stereo not shown) [Cpd 3], the IC50 is 301 nM. Moreover, the inhibition at 1 µM under setting [1] stood at 101%.
Compound `Cc1cccc(C)c1NC(C(=O)Nc1cccc2cnccc12)c1ccc(C(F)(F)F)cc1` (stereo not shown) [Cpd 25] had a half-maximal inhibitory concentration (IC50) of 273 nM. Besides, the inhibition at 0.5 µM under setting [1] stood at 99%.
`O=C(Nc1cccc2cnccc12)C(Nc1ccccc1)c1ccc(C(F)(F)F)cc1` (single isomer, unassigned) [Cpd 31, N-Isoquinolin-5-yl-2-phenylamino-2-(4-trifluoromethyl-phenyl)-acetamide]: half-maximal inhibition (IC50) was put at 17 nM. For the same compound, for the setting “0.5 μM compound, HEK293 canine TRPM8, icilin challenge, 0.5 µM”, the “% Inh @ 0.5 μM” value is 102.16%.
For the compound `O=C(Nc1cccc2cnccc12)C(c1ccc(C(F)(F)F)cc1)N1CCc2ccccc21` (stereo not shown) [Cpd 18, 2-(Indolin-1-yl)-N-(isoquinolin-5-yl)-2-(4-(trifluoromethyl)phenyl)acetamide], it took 103 nM to reach half-maximal inhibition (IC50). The inhibition at 0.5 µM under setting [1] came out at 104%.
The like results for `O=C(Nc1cccc2cnccc12)C(Nc1ccc(F)cc1)c1ccc(C(F)(F)F)cc1` (stereo not shown) [Cpd 35] were, in that order, 73 nM and 99%.
`O=C(Nc1cccc2cnccc12)C(c1ccc(C(F)(F)F)cc1)N1CCCc2ccccc21` (stereo not shown) [Cpd 19]: half-maximal inhibition (IC50) required 586 nM. Also, the inhibition at 0.5 µM under setting [1] came to 79.7%.
In the same order, the values of `O=C(Nc1cccc2cnccc12)C(Nc1c(F)cccc1F)c1ccc(Cl)cc1` (stereo not shown) [Cpd 48] are 94 nM and 98%.
Consider `O=C(Nc1cccc2cnccc12)C(Nc1ccccc1)c1ccc(C(F)(F)F)cc1` (stereo not shown) [Cpd 4, N-Isoquinolin-5-yl-2-phenylamino-2-(4-trifluoromethyl-phenyl)-acetamide], for which the IC50 is 72 nM and 28.9 nM. Further, under setting [1], the inhibition at 0.5 µM is 104% and the inhibition at 1 µM came out at 102%.
For the compound `O=C(Nc1cccc2cccnc12)C(Nc1ccccc1)c1ccc(C(F)(F)F)cc1` (stereo not shown) [Cpd 29], the IC50 was determined as 441 nM. The inhibition at 0.5 µM under setting [1] amounted to 85.1%.
The like results for `O=C(Nc1cccc2cnccc12)C(Nc1ccccc1)c1cccc(C(F)(F)F)c1` (stereo not shown) [Cpd 42] were, in that order, 109 nM and 96%.
`CC(C)(C)c1ccc(C(Nc2ccccc2)C(=O)Nc2cccc3[nH]ncc23)cc1` (stereo not shown) [Cpd 5] displayed a half-inhibitory concentration (IC50) of 118 nM. Under setting [1], the inhibition at 1 µM was 100%.
`O=C(Nc1cccc2cnccc12)C(Nc1cc(F)ccc1F)c1ccc(Cl)cc1` (stereo not shown) [Cpd 53]: it took 65.3 nM to reach half-maximal inhibition (IC50). In addition, the inhibition at 0.2 µM under setting [1] was determined as 90%.
`O=C(Nc1cccc2cnccc12)C(Nc1ccccc1F)c1ccc(Cl)cc1` (stereo not shown) [Cpd 44] registered an IC50 of 96.8 nM. Further, under setting [1], the inhibition at 0.5 µM was determined as 98%.
The like results for `O=C(Nc1cccc2[nH]ccc12)C(Nc1ccc(F)cc1)c1ccc(C(F)(F)F)cc1` (stereo not shown) [Cpd 34] were, in that order, 226 nM and 84%.
The like results for `O=C(Nc1cccc2ncccc12)C(Nc1c(F)cccc1F)c1ccc(Cl)cc1` (stereo not shown) [Cpd 49] were, in that order, 92 nM and 83%.
`O=C(NC1CCc2ccccc21)C(Nc1ccccc1)c1ccc(C(F)(F)F)cc1` (stereo not shown) [Cpd 10, N-Indan-1-yl-2-phenylamino-2-(4-trifluoromethyl-phenyl)-acetamide]: inhibition was half-maximal at 158 nM (IC50). For the same compound, under setting [1], the inhibition at 1 µM came out at 100%.
Regarding `CC(C)(C)c1ccc(C(Nc2ccccc2)C(=O)Nc2cccc3cn[nH]c23)cc1` (stereo not shown) [Cpd 20], half-maximal inhibition (IC50) was put at 233 nM. In addition, under setting [1], the inhibition at 0.5 µM is 101%.
As for `CC(C)(C)c1ccc(C(Nc2ccccc2)C(=O)Nc2cccc3[nH]ccc23)cc1` (stereo not shown) [Cpd 7], 529 nM corresponded to half-maximal inhibition (IC50). In addition, the inhibition at 1 µM under setting [1] was 100%.
The like results for `CC(C)(C)c1ccc(C(Nc2ccccc2)C(=O)Nc2ccc3cnccc3c2)cc1` (stereo not shown) [Cpd 8] were, in that order, 438 nM and 97.5%.
Turning to `CC(C)(C)c1ccc(C(Nc2ccccc2)C(=O)Nc2cccc3cnccc23)cc1` (stereo not shown) [Cpd 1], half-maximal inhibition (IC50) required 35.8 nM. For the same compound, the inhibition at 1 µM under setting [1] came out at 103%.
`Cc1ccccc1NC(C(=O)Nc1cccc2cnccc12)c1ccc(C(F)(F)F)cc1` (stereo not shown) [Cpd 22] returned an IC50 of 38.4 nM. Moreover, the inhibition at 0.5 µM under setting [1] came out at 104%.
The like results for `O=C(Nc1cccc2cnccc12)C(Nc1cccc(F)c1F)c1ccc(Cl)cc1` (stereo not shown) [Cpd 51] were, in that order, 273 nM and 87%.
For `O=C(Nc1cccc2[nH]ccc12)C(Nc1cccc(F)c1)c1ccc(C(F)(F)F)cc1` (stereo not shown) [Cpd 37], the IC50 turned out to be 217 nM. Moreover, the inhibition at 0.5 µM under setting [1] amounted to 94%.
